Reference: patent US20200093864A1, “NOVEL THERAPEUTIC STEM CELL COMPOSITIONS WITH AN ACTIVE OXIDATIVE PHOSPHORYLATION SITE AND THEIR PREPARATION” (priority 2018, published 2020)

Legend:
[1] = system: human adenocarcinoma cells; assay: Growth of cultured human adenocarcinoma cells (Example 7); format: cell-based; conditions: for growth of cultured human adenocarcinoma cells (in words): Table 2 summary; for cell growth (10^5): cell numbers on day 4, 10^5 cells passaged day 0; for cell growth (10^5) / cell growth (% of control): TR2Co and TR 30 mg/dL, hMSC 10^5 added; for cell growth (% of control): day 4
Method: Human adenocarcinoma cells were cultured in RPMI medium with added fetal bovine serum and antibiotics, as reported by McCully K S et al in Research Communications in Chemical Pathology and Pharmacology, 1992; 77: 125-128. Equal numbers (10^5) of adenocarcinoma cells were trypsinized and passaged on day 0, and the cells were refed with media containing test compounds on days 1 and 3. Cell numbers were determined by trypsinization on day 4. Thioretinaco (TR2Co) and thioretinamide (TR) were synthesized, as previously described (McCully U.S. Pat. No. 4,618,685; McCully U.S. Pat. No. 4,925,931) and dissolved in absolute ethanol. Propylene glycol (PG) was added to the ethanol solutions of the test compounds, the ethanol was evaporated under reduced pressure at 37° C., and the resulting solutions in propylene glycol were added to the culture media. Human mesenchymal stem cells (hMSC) were incubated with cell culture medium containing TR2Co, NAD^+ and H2PO4^− in an atmosphere containing 5% ozone (O3), to produce activated stem cells and 10^5 hMSC were added to the culture medium containing adenocarcinoma cells. Equal numbers (10^5) of hMSC without exposure to TR2Co, O3, NAD^+ and H2PO4^− served as controls.

[2] = system: human pancreatic cancer cells growing in athymic mice; conditions: direct injection into subcutaneous tumors, cited from earlier work; for tumor growth inhibition (in words): 6 weeks, vs propylene glycol vehicle controls
[3] = system: human pancreatic carcinoma cells; conditions: added in the culture medium, after 4 days, compared with ethanol vehicle controls; cited from earlier work
[4] = system: person with metastatic prostate cancer; assay: Example 1: intravenous activated stem cell therapy, patient case; format: in vivo, human; conditions: following luprolide therapy, over three months; 8.0 before
Method: Preparation of human mesenchymal stem cells containing an increased concentration of the active site of oxidative phosphorylation, TR2CoO3O2NAD^+H2PO4^−, is accomplished by incubation of stem cells in cell culture medium containing thioretinaco (TR2Co), 30 mg/dL, and […] (NAD^+H2PO4^−), 30 mg/dL, and exposed to an atmosphere containing ozone […], 1-10% by volume. Human mesenchymal stem cells are isolated by liposuction or by bone marrow aspiration, followed by collagenase digestion, filtration of cellular debris, centrifugation and adherence of the cellular pellet to the surface of the cell culture dish. Adherent mesenchymal stem cells are maintained in cell culture medium for 4-5 days at about 37 degrees centigrade at atmospheric pressure until 90% confluency is achieved, subsequently passaged by trypsinization four additional times, and washed in buffered saline for use. Aliquots of the mesenchymal stem cells are checked for cell viability, and absence of fungal, bacterial, endotoxin and mycoplasma contamination. Multiple doses of 10^8 cells are delivered in 100 ml of sterile saline intravenously to achieve a total dose of 2.5×10^10 cells over a period of two years. The final concentration of TR2CoO3O2NAD^+H2PO4^− within the activated stem cells is approximately 10-300 μg/g.
A person was evaluated for treatment of metastatic prostate cancer. […]

[5] = system: cultured normal fibroblasts; conditions: thioretinaco in culture medium; cited from earlier work

| Compound | growth of cultured human adenocarcinoma cells (in words) [1] | cell growth (10^5) [1] | cell growth (% of control) [1] | tumor growth inhibition (in words) [2] | cellular growth (in words) [3] | also measured |
| --- | --- | --- | --- | --- | --- | --- |
| CC1=C(/C=C/C(C)=C/C=C/C(C)=C/C(=O)NC2CCSC2=O)C(C)(C)CCC1 (stereo not drawn) [TR, N-homocysteine thiolactonyl retinamide] | significantly inhibit | 1.4 ± 0.50 10^5 | 19 % of control | no growth inhibition | inhibition of cellular growth |  |
| luprolide |  |  |  |  |  | PSA value [4]: 0.1 ng/mL |
| N-homocysteine thiolactonyl retinamido cobalamin [TR2Co] | significantly inhibit | 2.5 ± 0.82 10^5 | 33 % of control |  | inhibition of cellular growth | reduction of tumor weight ([2]; after 6 weeks of growth, compared with propylene glycol vehicle controls): 50%; growth of cultured normal fibroblasts (in words) [5]: Only the highest concentrations of thioretinaco decrease growth |
| homocysteine thiolactonyl cobalamin |  |  |  | no growth inhibition |  |  |
| C/C1=C2/[N-][C@H]([C@H](CC(N)=O)[C@@]2(C)CCC(=O)NC[C@@H](C)OP(=O)([O-])O[C@H]2[C@@H](O)[C@@H](n3cnc4cc(C)c(C)cc43)O[C@@H]2CO)[C@]2(C)N=C(/C(C)=C3N=C(/C=C4N=C1[C@@H](CCC(N)=O)C\4(C)C)[C@@H](CCC(N)=O)[C@]\3(C)CC(N)=O)[C@@H](CCC(N)=O)[C@]2(C)CC(N)=O.[CH2-][C@H]1O[C@@H](n2cnc3c(N)ncnc32)[C@H](O)[C@@H]1O.[Co] [adenosyl cobalamin] |  |  |  | no growth inhibition |  |  |
| N[C@H]1CCSC1=O.[O-][Cl+3]([O-])([O-])O [homocysteine thiolactone perchlorate] |  |  |  | no growth inhibition |  |  |
